Assay results taken from patent US5683668A, “Method of generating nitric oxide gas using nitric oxide complexes” (The United States of America as represented by the …, priority 1996, dated 1997).
Like-named read-outs stand apart in the source and are kept apart here. Values belong to the compound of their own block, whether it stands above or below them.

Tests used:
[1] = Stability of the adducts as solids; assay type: physicochemical; conditions: applicant's statements; room temperature, closed containers or air
[2] = unless stored at -78° C.; prior art salts; cited from earlier work
[3] = % NO by weight of the NO complexes; assay type: physicochemical
[4] = NO release half-life by disappearance of UV absorption in phosphate buffer; assay type: physicochemical
Procedure: Ultraviolet data were obtained in 0.01M NaOH to avoid this degradation problem. […] Kinetic data were obtained by diluting stock solutions (0.01M NaOH) of each compound with pH 7.4 phosphate buffer (0.1M) as needed to produce final solutions having compound concentrations in the range of 90-120 μM.

[5] = Equivalents of NO released at 22° C.; assay type: physicochemical
[6] = % NO yield on acid release, thermal energy analyzer (TEA); assay type: physicochemical; conditions: weight percent of the theoretical maximum, dilute aqueous HCl
Procedure: NO gas was generated from compounds 2, 6, 10, 11, and 14 of Example 1, as well as H2 N(CH2)3 N[N(O)NO^- ](CH2)4 NH(CH2)3 NH3^+, using the procedure set forth below. The percent NO yield was then calculated for each of these NO adducts.
The apparatus comprises a first vessel 10 having an inlet 11 and an outlet 12 and contains mineral oil (or other heavy liquid) to prevent backflow. The outlet 12 of vessel 10 is connected to a first inlet 21 of second vessel 20, which also has a second inlet 22 and an outlet 23. The second vessel 20 contained either the solid NO complex or an aqueous solution of the NO complex. An addition funnel 30 is connected to the second inlet 22 of second vessel 20 so as to provide a means of introducing dilute aqueous HCl into second vessel 20. The outlet 23 of second vessel 20 is connected to the inlet 41 of condenser 40, and the outlet 42 of condenser 40 is connected to the inlet 51 of third vessel 50. The condenser 40 and third vessel 50 function to capture any mist carried through the apparatus in the gas stream. The outlet 52 of third vessel 50 is connected to drying towers 60 and 70 which contain desiccant such as calcium chloride or molecular sieves and contain an outlet 71 for gas passage.
In use, nitrogen gas was passed through the apparatus through the inlet 11 of first vessel 10 to flush oxygen from the apparatus. Acidic solution was then introduced into second vessel 20 by way of addition funnel 30, and NO gas was generated in second vessel 20. The thus generated NO gas flowed through the outlet 23 of second vessel 20, through the condenser 40, into the third vessel 50, into the drying towers 60 and 70, and out the […].
The NO gas released through the outlet 71 of drying column 70 was fed into a thermal energy analyzer (TEA), which generates a signal proportional to the quantity of NO gas present. The yield of NO gas, as a weight percent of the theoretical maximum, obtained for each of the compounds tested is given in Table III.

[7] = NO gas yield measured volumetrically in a gas buret; assay type: physicochemical
Procedure: In a separate series of experiments, the generated gas was also collected in a gas buret and the yields were measured volumetrically. Yields ranged from 70-90% of theoretical. For example, when 1.0 g of CH3 N(N2 O2^-)CH2 CH2 NH3^+ was added to 5 ml concentrated H2 SO4, 285 ml NO gas (85%) was trapped in the buret.

[8] = Refrigerated storage stability by combustion analysis; assay type: physicochemical; conditions: refrigerator, several months
From the text: Samples of compound 11 of Example 1 were stored in a refrigerator over the course of several months.

[9] = 22° C., pH 7.4, 0.1M phosphate buffer, read-out: t1/2
[10] = phosphate buffer, buffered aqueous solution, pH 7.4, 22° C., read-out: half-life (converted)

half-life [4, 9]: 0.168 h
half-life [4, 10]: 0.168 h
SMILES: CNCCCN(C)[N+]([O-])=NO [Compound 3, 1-Hydroxy-2-oxo-3-(N-methyl-3-aminopropyl)-3-methyl-1-triazene]

half-life [4, 9]: 0.0217 h
half-life [4, 10]: 0.0217 h
SMILES: CNCCCCN(C)[N+]([O-])=NO [Compound 4, 1-Hydroxy-2-oxo-3-(N-methyl-4-aminobutyl)-3-methyl-1-triazene]

half-life [4, 9]: 0.045 h
SMILES: CNCCCCCCN(C)[N+]([O-])=NO [Compound 5, 1-Hydroxy-2-oxo-3-(N-methyl-6-aminohexyl)-3-methyl-1-triazene]

half-life [4, 9]: 5.55 h
half-life [4, 10]: 5.55 h
% NO By Wt. [3]: 40.5%
SMILES: CCN(CCN)[N+]([O-])=NO [Compound 7, 1-Hydroxy-2-oxo-3-(2-aminoethyl)-3-ethyl-1-triazene]

half-life [4, 9]: 0.228 h
SMILES: CN(CCCN)[N+]([O-])=NO [Compound 9, 1-Hydroxy-2-oxo-3-(3-aminopropyl)-3-methyl-1-triazene]

half-life [4, 9]: 1.48 h
SMILES: CC(C)NCCCN(C(C)C)[N+]([O-])=NO [Compound 12, 1-Hydroxy-2-oxo-3-(N-isopropyl-3-aminopropyl)-3-isopropyl-1-triazene]

half-life [4, 9]: 1.92 h
SMILES: NCCCN(C1CCCCC1)[N+]([O-])=NO [Compound 13, 1-Hydroxy-2-oxo-3-(3-aminopropyl)-3-cyclohexyl-1-triazene]

half-life [4, 9]: 4.73 h
SMILES: NCCCN(CCCN)[N+]([O-])=NO [Compound 15, 1-Hydroxy-2-oxo-3,3-di(3-aminopropyl)-1-triazene]

half-life [4, 9]: 2.75 h
stability as solid [1]: hygroscopic
SMILES: NCCCCN(CCCN)[N+]([O-])=NO [Compound 16, 1-Hydroxy-2-oxo-3-(3-aminopropyl)-3-(4-aminobutyl)-1-triazene]

More lines, now with the values behind:

SMILES: CC(C)N(CCCN)[N+]([O-])=NO.CC(C)NCCCN
stability as solid [1]: not stable enough to obtain combustion analytical data

SMILES: CC(C)N/[N+]([O-])=N/O
stability in the solid state [2]: slow decomposition even in the solid state unless stored at -78 °C

SMILES: CCN(CC)[N+]([O-])=NO [CH3 CH2 N(N2 O2^-)CH2 CH3.Na^+, reference compound]
% NO By Wt. [3]: 38.7%

SMILES: CC(C)N(CCCN)[N+]([O-])=NO [Compound 1, 1-Hydroxy-2-oxo-3-(3-aminopropyl)-3-isopropyl-1-triazene]
half-life [4, 9]: 1.55 h

SMILES: CNCCN(C)[N+]([O-])=NO [Compound 2, 1-Hydroxy-2-oxo-3-(N-methyl-2-aminoethyl)-3-methyl-1-triazene]
half-life [4, 9]: 0.602 h
half-life [4, 10]: 0.602 h
equivalents of NO released [5]: two equivalents
% NO By Wt. [3]: 40.5%
% NO Yield [6]: 98%

SMILES: CN(CCN)[N+]([O-])=NO [Compound 6, 1-Hydroxy-2-oxo-3-(2-aminoethyl)-3-methyl-1-triazene]
half-life [4, 9]: 0.667 h
half-life [4, 10]: 0.667 h
equivalents of NO released [5]: two equivalents
% NO By Wt. [3]: 45%
% NO By Wt. ([3]; listed as CH3 N(N2 O2^-)CH2 CH2 NH3^+): 44.7%
% NO Yield [6]: 110%
volume of NO gas trapped ([7]; 1.0 g adduct added to 5 ml concentrated H2 SO4): 285 mL
volumetric NO yield ([7]; percent of theoretical, gas buret): 85%

SMILES: CCNCCN(CC)[N+]([O-])=NO [Compound 8, 1-Hydroxy-2-oxo-3-(N-ethyl-2-aminoethyl)-3-ethyl-1-triazene]
half-life [4, 9]: 5.45 h
equivalents of NO released [5]: two equivalents
% NO By Wt. [3]: 34.1%

SMILES: CCNCCCN(CC)[N+]([O-])=NO [Compound 10, 1-Hydroxy-2-oxo-3-(N-ethyl-3-aminopropyl)-3-ethyl-1-1-triazene]
half-life [4, 9]: 1.2 h
% NO Yield [6]: 100%

SMILES: CCCN(CCCN)[N+]([O-])=NO [Compound 11, 1-Hydroxy-2-oxo-3-(3-aminopropyl)-3-propyl-1-triazene]
half-life [4, 9]: 1.28 h
equivalents of NO released [5]: two equivalents
% NO Yield [6]: 110%
change in elemental composition on storage [8]: no change in elemental composition was observed

SMILES: NCCN(CCN)[N+]([O-])=NO [Compound 14, 1-Hydroxy-2-oxo-3,3-di (2-aminoethyl)-1-triazene]
half-life [4, 9]: 56.7 h
half-life (in words) ([4]; comparison between adducts differing in R' or type): too stable to permit monitoring over a sufficient number of half-lives
half-life relative to the diethylamine/NO adduct ([4]; fold over diethylamine/NO adduct): over 200 times
half-life [4, 10]: 56 h
equivalents of NO released [5]: two equivalents
% NO By Wt. [3]: 36.8%
% NO Yield [6]: 97%

SMILES: CCN(CC)[N+]([O-])=NO [DEA/NO]
stability in the solid state [2]: slow decomposition even in the solid state unless stored at -78 °C

SMILES: NCCCNCCCCN(CCCN)[N+]([O-])=NO [spermine/NO adduct]
equivalents of NO released [5]: two equivalents
% NO Yield [6]: 95%
